Data set [1] deals with B16-F10, MB49, MC38, and CT26. Kind of data set: RNA-seq splicing analysis, mouse tumor cell lines. It is filed as cell-based. The following applies: doses that did not affect tumor cell growth in vitro. Here is the method:
(§1) Unless otherwise specified, cell lines were treated with splicing inhibitors at the indicated concentrations for 96 hours in vitro, harvested and washed three times with PBS in excess to remove all drug, and then used for downstream analyses and/or subsequent studies, including phenotyping, RNA-seq analyses, continued growth in vitro, or tumor challenge in vivo into syngeneic animals.
(§2) Bulk lung and colon were homogenized using a Qiagen TissueRuptor. For all tissues and cell types, RNA was extracted using an RNeasy kit (Qiagen, Frederick, Md.) and quantified using a NanoDrop 8000 (ThermoFisher Scientific). A minimum of 500 ng of high-quality RNA (as determined by Agilent Bioanalyzer) per sample or replicate was used for library preparation. Poly(A)-selected, strand-specific (dUTP method) Illumina libraries were prepared with a modified TruSeq protocol and sequenced on the Illumina HiSeq 2000 (˜100M 2×101 bp paired-end reads per sample or replicate).
RNA-seq analysis was performed as previously described (Dvinge, H., et al. (2014). Sample processing obscures cancer-specific alterations in leukemic transcriptomes. Proc Natl Acad Sci USA 111, 16802-16807, incorporated herein by reference in its entirety). […] Aligned reads from these two mapping steps were merged to generate final BAM files for all subsequent analyses. […]

Data set [2] concerns 501-MEL, A375, and SK-MEL-239. Kind of data set: RNA-seq splicing analysis, human tumor cell lines. It is filed as cell-based. The conditions noted are these: identical treatment. The protocol:
as §2
RNA-seq analysis was performed as previously described (Dvinge, H., et al. (2014). Sample processing obscures cancer-specific alterations in leukemic transcriptomes. Proc Natl Acad Sci USA 111, 16802-16807, incorporated herein by reference in its entirety). […] Aligned reads from these two mapping steps were merged to generate final BAM files for all subsequent analyses.
MISO v2.0 was used to quantify all expression of isoforms arising from exon skipping (cassette exons), competing 5′ splice site selection, competing 3′ splice site selection, and annotated intron retention. […]

The subject of data set [3] is T cells stimulated with anti-CD3 and CD28 antibodies. Kind of data set: Gene expression program of activated T cells (RNA-seq). The data set is classed as cell-based, mouse. The conditions noted are these: ex vivo anti-CD3 and CD28 stimulation in presence of drug. The protocol:
(§3) Plates were coated with 10 μg/mL anti-CD3 (clone 145-2C11, Biolegend Cat. 100302) and 2 μg/mL anti-CD28 (clone 37.51, Biolegend Cat. 102102) in PBS overnight at 4° C. and washed twice with cold PBS prior to use. CFSE-labeled CD5-selected splenic T cells from naïve C57BL/6J mice were obtained identically as for adoptive cell transfer, and 5×10^4 cells incubated with coated plates in the presence of splicing inhibitor drugs at the indicated concentrations, followed by analysis by standard flow cytometry on day 3. Of note, for RNA-seq analyses, T cells were not labeled with CFSE, and underwent activation for 4 days (96 hours) in the presence of various splicing modulator drugs to harmonize experimental conditions with RNA-seq analyses of tumors treated with splicing inhibitors. For the RNA-seq experiments only, T cells in all conditions were also incubated with IL-2 at 50 U/mL to maximize viability and yield.
as §2

Data set [4] can be described thus: Peripheral blood counts after extended treatment. The following applies: three weeks, with or without anti-PD1.
Procedure: (§4) Animals were subcutaneously engrafted on bilateral flanks with tumor cells (MC38 1×10^6, B16-F10 0.5×10^6 and LLC 0.25×10^6 cells unless otherwise specified) on day 0, and treated continuously with splicing inhibitors (MS-023 50 mg/kg i.p., indisulam 25 mg/kg i.v. or vehicle) daily for 5 of 7 weekly days starting from day +3 of tumor challenge. […] Mice were weighed weekly for weight-based drug dosing.
The next data set concerns CD5^+ splenic T cells. As to the kind of experiment: Anti-CD3/CD28 T cell activation and proliferation (CFSE). The data set is classed as cell-based, mouse. Here is the method: Cell lines were grown with half-log10 concentrations of the indicated drug in 4 to 8 technical replicates under standard conditions until the control condition (DMSO or vehicle) was confluent by microscopy. For tumor cell lines, viable cells were quantified via the CellTiter-Glo® assay (Promega Cat. G7573) as per manufacturer instructions. For the ex vivo proliferation of T cells, viable cells were instead quantified via flow cytometry using counting beads. The percentage or number of viable cells with drug treatment was calculated relative to DMSO control (as 100%). […] For absolute cell number, Annexin V+, CD25+, and PD1+ flow cytometry data presented in Figure S4, dose-response models and IC50 values were computed using the R language's dre package (Ritz, C., et al. (2015). Dose-Response Analysis Using R. PLoS One 10, e0146021).
as §3

The test system of the next data set is MC38 tumors. Kind of data set: Therapeutic treatment with splicing compounds and anti-PD1, MC38 tumors. It is filed as in vivo, mouse. The following applies: three months following tumor implantation.
The subject of data set [5] is B16-F10, MC38, and CT26 cells. As to the kind of experiment: In vivo tumor challenge with ex vivo indisulam-treated cells in syngeneic mice. Also noted: species or system mouse. Here is the method:
as §1
Unless otherwise specified, syngeneic B6 or Balb/c mice were engrafted subcutaneously on bilateral flanks with MC38, B16-F10, CT26 or LLC tumor cells at the following doses: MC38 10^6 cells, B16-F10 0.5×10^6 cells, CT26 0.25×10^6 cells, LLC 0.25×10^6 cells. Tumors were measured serially twice or three times weekly and tumor volumes were estimated by length×width×height. Animals were monitored daily for survival and weighed twice weekly. Experimental endpoints mandating euthanasia were approved by the IACUC and included: animal lethargy, severe kyphosis or evidence of pain, difficulty with ambulation or feeding, tumor ulceration>1 cm or bleeding tumor, evidence of infected tumor, tumor volumes exceeding 2.5 cm^3, or animal total body weight loss>10% from baseline.

Data set [6] has as its system B16-F10, MC38, and CT26 cells. As to the kind of experiment: In vitro growth after ex vivo indisulam treatment and drug washout. It is filed as cell-based, mouse. The conditions noted are these: ex vivo 1 μM for four days followed by drug washout. Here is the method: as §1

Procedure for MC38 tumors: as §4

In the case of `CC(C)Oc1ccc(-c2c[nH]cc2CN(C)CCN)cc1` [MS-023], the “splicing changes in mouse tumor cell lines” value in data set [1] is “dramatic changes in both alternative and constitutive splicing”. In addition, the “splicing changes in human cancer cells” value in data set [2] was “stereotyped and pervasive splicing changes”. In addition, the “genes normally upregulated upon T cell activation” value in data set [3] was “much milder changes”. Moreover, in data set [4], the “lymphocytes, neutrophils, or other peripheral blood counts” value is on record as “negligible effects”. The “T cell apoptosis and activation markers” value in the data set on CD5^+ splenic T cells is listed as “much milder effects”. For the same compound, the “mice alive and tumor-free” value in the data set on MC38 tumors turned out to be 25%.

With `NS(=O)(=O)c1ccc(S(=O)(=O)Nc2cccc3c(Cl)c[nH]c23)cc1` [indisulam], the “tumor growth following engraftment into syngeneic, immunocompetent mice” value in data set [5] (cells treated ex vivo 1 μM four days, drug washout) is “strikingly durable growth inhibition”. Moreover, the animal survival entry in data set [5] (exposure to increasing drug concentrations (CT26; 10, 100, 1000 nM, 96 hours)) is “improved animal survival”. For the same compound, in data set [1], the “splicing changes in mouse tumor cell lines” value is “dramatic changes in both alternative and constitutive splicing”. Further, the “splicing changes in human cancer cells” value in data set [2] was “stereotyped and pervasive splicing changes”. For the same compound, the “genes normally upregulated upon T cell activation” value in data set [3] is “much milder changes”. Moreover, the “T cell apoptosis and activation markers” value in the data set on CD5^+ splenic T cells is given as “much milder effects”. The IC50 in the data set with CD5^+ splenic T cells (Mus musculus, T-cell, 72 h, three days of continuous drug exposure, read-out: IC50 values, T cell proliferation following stimulation) is 1 to 10 µM. In addition, the “subsequent cell proliferation or apoptosis” value in data set [6] is “minimal effects”.

Source of the values: patent publication US20230190707A1, “COMPOSITIONS AND METHODS FOR ENHANCING CANCER IMMUNOTHERAPY” (FRED HUTCHINSON CANCER CENTER, priority 2020, published 2023).
